Experiments:
Assay in all cases: relative viability (nuclei count vs DMSO), 5 days (fraction); higher = more cells survive
[1] = compound: CC[C@@H](C)CNCC(=O)N1CCC2=C([C@@H]1COC3=CC=CC(=C3)C)C=CS2 [RU-SKI 43]
Outline: (§1)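 Vehicle-anchored 1536-well plates of lung cancer cell lines, held overnight at 37 °C, were pinned with five library-drug doses (not always all listed) spaced by √10. No medium change followed over the next 5 days, after which the cells were fixed, permeabilised and Hoechst-stained together and imaged at 4×. Nuclei were counted with MetaXpress, and viability is treated-well nuclei over vehicle-well nuclei, taken as a median across plates. Plates passed with control CV below 25% and at least one doubling.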

[2] = compound: Cn1cc(-c2cnc3ccc4ccc(CS(=O)(=O)NCc5ccccn5)cc4c(=O)c3c2)cn1 [MK-8033]
Outline: as §1

[3] = compound: CCc1c2c(nc3ccc(OC(=O)N4CCC(N5CCCCC5)CC4)cc13)-c1cc3c(c(=O)n1C2)COC(=O)[C@]3(O)CC [Irinotecan]
Outline: as §1

Row | Cell Line | relative viability ([1]; 0.1 µM) | relative viability ([1]; 0.3162 µM) | relative viability ([1]; 1 µM) | relative viability ([1]; 3.162 µM) | relative viability ([1]; 10 µM) | relative viability ([2]; 0.02 µM) | relative viability ([2]; 0.06325 µM) | relative viability ([2]; 0.2 µM) | relative viability ([2]; 0.6325 µM) | relative viability ([2]; 2 µM) | relative viability ([3]; 0.6325 µM) | relative viability ([3]; 2 µM) | relative viability ([3]; 6.325 µM) | relative viability ([3]; 20 µM)
1 | NCI-H2023 | 1.06 | 1.47 | 1.11 | 1.1 | 0.905 | 0.941 | 0.88 | 0.838 | 0.846 | 0.715 | 0.881 | 0.829 | 0.217 | 0.0696
2 | NCI-H2085 | 0.981 | 1.01 | 1.02 | 0.975 | 0.927 | 0.931 | 0.987 | 0.959 | 0.942 | 0.984 | 0.824 | 0.909 | 0.75 | 0.529
3 | NCI-H2087 | 1.06 | 1.11 | 1.17 | 0.995 | 0.933 | 1.2 | 1.02 | 0.953 | 1.08 | 1.1 | 0.406 | 0.496 | 0.187 | 0.203
4 | NCI-H2126 | 1.01 | 0.99 | 1.05 | 1.04 | 0.985 | 0.978 | 0.901 | 0.911 | 0.976 | 1.02 |  | 1.07 | 0.552 | 0.387
5 | NCI-H2170 | 0.977 | 1.06 | 1.01 | 1.04 | 0.986 | 0.991 | 0.925 | 0.918 | 0.948 | 0.971 | 0.959 | 0.946 | 0.462 | 0.223
6 | NCI-H2228 | 0.937 | 1.27 | 1.31 | 1.01 | 0.601 | 1.03 | 0.839 | 0.878 | 1.06 | 0.89 | 0.706 | 0.868 | 0.484 | 0.409
7 | NCI-H2342 | 0.895 | 0.773 | 0.972 | 1.18 | 0.989 | 0.988 | 1.11 | 1.12 | 1.13 | 1.13 | 0.938 | 0.97 | 1 | 0.575
8 | NCI-H2347 | 0.978 | 1.09 | 1.1 | 0.97 | 0.967 | 1.02 | 1.02 | 0.984 | 1.03 | 1.04 | 0.789 | 0.83 | 0.483 | 0.495
9 | NCI-H2405 | 0.996 | 0.977 | 1.05 | 0.96 | 0.967 | 1.02 | 0.944 | 0.94 | 1.02 | 1.01 |  | 0.953 | 0.426 | 0.217
10 | NCI-H3122 | 1.06 | 1.15 | 1.08 | 1.09 | 0.983 | 0.981 | 1.03 | 0.931 | 0.985 | 1.01 | 0.97 | 0.625 | 0.224 | 0.176
11 | PC-3 [JPC-3] | 1.04 | 1.01 | 1.05 | 0.983 | 0.994 | 0.977 |  | 0.921 | 1.06 | 1 | 0.564 | 0.833 | 0.529 | 0.357
12 | PC-14 | 1.01 | 1.15 | 1.2 | 1.01 | 0.953 | 1.01 | 0.83 | 0.888 | 0.95 | 0.938 | 0.72 | 0.876 | 0.29 | 0.185
13 | RERF-LC-KJ | 1.04 | 1.12 | 1.05 | 1.01 | 0.937 | 0.999 | 1.01 | 0.934 | 1.01 | 0.948 | 0.871 | 0.839 | 0.542 | 0.373
14 | SK-LU-1 | 0.953 | 1.29 | 1.11 | 1.15 | 1.05 | 1.05 | 1.05 | 0.878 | 0.997 | 1.04 | 0.719 | 0.575 | 0.358 | 0.276
15 | SK-MES-1 | 1.05 | 1.16 | 1.01 | 1.05 | 0.977 | 0.925 | 0.935 | 0.942 | 0.96 | 0.998 | 0.873 | 0.799 | 0.327 | 0.236
16 | SW 900 | 0.716 | 0.93 | 1.02 | 0.683 | 0.62 | 0.884 | 0.684 | 0.685 | 1.03 | 0.789 | 0.51 | 0.787 | 0.497 | 0.432
17 | SW 1573 | 1.01 | 1.16 | 0.954 | 1.07 | 0.802 | 1.05 | 0.84 | 0.917 | 0.969 | 0.893 | 0.571 | 0.709 | 0.271 | 0.142
